Reference: PubChem BioAssay (NCI)
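Briefly, cells in 96-well plates were exposed to five compound concentrations for 48 h, and endpoints were estimated by linear interpolation. TGI is the concentration that stops growth completely.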 Where a SMILES comes first, the peptide text is derived from it. The star is where a group is joined. Boc = CC(C)(C)OC(=O)*; tBu = CC(C)(C)*

Tests used:
Assay in all cases: inhibition of tumour cell growth, NCI panel, 48 h
MOLT-4 leukemia = system: MOLT-4 leukemia
HOP-92 NSCLC = system: HOP-92 NSCLC
COLO 205 colon = system: COLO 205 colon
T-47D breast = system: T-47D breast
MCF7 breast = system: MCF7 breast
SK-MEL-28 melanoma = system: SK-MEL-28 melanoma
OVCAR-3 ovarian = system: OVCAR-3 ovarian
IGROV1 ovarian = system: IGROV1 ovarian
K-562 leukemia = system: K-562 leukemia
UO-31 renal = system: UO-31 renal
NCI-H23 lung = system: NCI-H23 lung
SN12C renal = system: SN12C renal
HCT-116 colon = system: HCT-116 colon
A549 NSCLC = system: A549 NSCLC
ACHN renal = system: ACHN renal
786-0 renal = system: 786-0 renal
TK-10 renal = system: TK-10 renal
MDA-MB-435 = system: MDA-MB-435
RXF 393 renal = system: RXF 393 renal
KM12 colon = system: KM12 colon
PC-3 prostate = system: PC-3 prostate
HT29 colon = system: HT29 colon
SK-MEL-2 melanoma = system: SK-MEL-2 melanoma
LOX IMVI melanoma = system: LOX IMVI melanoma
OVCAR-8 ovarian = system: OVCAR-8 ovarian
HCT-15 colon = system: HCT-15 colon
SK-OV-3 ovarian = system: SK-OV-3 ovarian
RPMI-8226 leukemia = system: RPMI-8226 leukemia
UACC-257 melanoma = system: UACC-257 melanoma
U251 CNS = system: U251 CNS
UACC-62 melanoma = system: UACC-62 melanoma
NCI-H226 lung = system: NCI-H226 lung
OVCAR-4 ovarian = system: OVCAR-4 ovarian
CAKI-1 renal = system: CAKI-1 renal
NCI/ADR-RES ovarian = system: NCI/ADR-RES ovarian
A498 renal = system: A498 renal
SR leukemia = system: SR leukemia
BT-549 breast = system: BT-549 breast
SF-268 CNS = system: SF-268 CNS
SF-295 CNS = system: SF-295 CNS
DU-145 prostate = system: DU-145 prostate
HS 578T breast = system: HS 578T breast
HOP-62 NSCLC = system: HOP-62 NSCLC
MDA-MB-231 breast = system: MDA-MB-231 breast
EKVX NSCLC = system: EKVX NSCLC
SNB-75 CNS = system: SNB-75 CNS
SF-539 CNS = system: SF-539 CNS
NCI-H460 lung = system: NCI-H460 lung
M14 melanoma = system: M14 melanoma
HCC-2998 colon = system: HCC-2998 colon
CCRF-CEM leukemia = system: CCRF-CEM leukemia
SW-620 colon = system: SW-620 colon
OVCAR-5 ovarian = system: OVCAR-5 ovarian
MDA-N = system: MDA-N
SNB-19 CNS = system: SNB-19 CNS
SK-MEL-5 melanoma = system: SK-MEL-5 melanoma
MALME-3M melanoma = system: MALME-3M melanoma
NCI-H522 lung = system: NCI-H522 lung
HL-60(TB) leukemia = system: HL-60(TB) leukemia

N#C[C@H](C(=O)c1ccccc1F)c1nc2ccccc2[nH]1
TGI (MOLT-4 leukemia): > 100 µM | TGI (HOP-92 NSCLC): > 100 µM | TGI (COLO 205 colon): > 100 µM | TGI (T-47D breast): > 100 µM | TGI (MCF7 breast): > 100 µM | TGI (SK-MEL-28 melanoma): > 100 µM | TGI (OVCAR-3 ovarian): > 100 µM | TGI (IGROV1 ovarian): > 100 µM | TGI (K-562 leukemia): > 100 µM | TGI (UO-31 renal): > 100 µM | TGI (NCI-H23 lung): > 100 µM | TGI (SN12C renal): > 100 µM | TGI (HCT-116 colon): > 100 µM | TGI (A549 NSCLC): > 100 µM | TGI (ACHN renal): > 100 µM | TGI (786-0 renal): > 100 µM | TGI (TK-10 renal): > 100 µM | TGI (MDA-MB-435): > 100 µM | TGI (RXF 393 renal): > 100 µM | TGI (KM12 colon): > 100 µM | TGI (PC-3 prostate): > 100 µM | TGI (HT29 colon): > 100 µM | TGI (SK-MEL-2 melanoma): > 100 µM | TGI (LOX IMVI melanoma): > 100 µM | TGI (OVCAR-8 ovarian): > 100 µM | TGI (HCT-15 colon): > 100 µM | TGI (SK-OV-3 ovarian): > 100 µM | TGI (RPMI-8226 leukemia): > 100 µM | TGI (UACC-257 melanoma): > 100 µM | TGI (U251 CNS): > 100 µM | TGI (UACC-62 melanoma): > 100 µM | TGI (NCI-H226 lung): > 100 µM | TGI (OVCAR-4 ovarian): > 100 µM | TGI (CAKI-1 renal): > 100 µM | TGI (NCI/ADR-RES ovarian): > 100 µM | TGI (A498 renal): > 100 µM | TGI (SR leukemia): > 100 µM | TGI (BT-549 breast): > 100 µM | TGI (SF-268 CNS): > 100 µM | TGI (SF-295 CNS): > 100 µM | TGI (DU-145 prostate): > 100 µM | TGI (HS 578T breast): > 100 µM | TGI (HOP-62 NSCLC): > 100 µM | TGI (MDA-MB-231 breast): > 100 µM | TGI (EKVX NSCLC): > 100 µM | TGI (SNB-75 CNS): > 100 µM | TGI (SF-539 CNS): > 100 µM | TGI (NCI-H460 lung): > 100 µM | TGI (M14 melanoma): > 100 µM | TGI (HCC-2998 colon): > 100 µM | TGI (CCRF-CEM leukemia): > 100 µM | TGI (SW-620 colon): > 100 µM | TGI (OVCAR-5 ovarian): > 100 µM | TGI (MDA-N): > 100 µM | TGI (SNB-19 CNS): > 100 µM

CC(=O)Oc1ccc(/C=C/C(=O)NCCOC(=O)/C=C/c2ccc(OC(C)=O)c(OC(C)=O)c2)cc1OC(C)=O
TGI (MOLT-4 leukemia): > 100 µM | TGI (HOP-92 NSCLC): 95.6 µM | TGI (SK-MEL-5 melanoma): 47.1 µM | TGI (COLO 205 colon): > 100 µM | TGI (T-47D breast): 98.9 µM | TGI (MCF7 breast): > 100 µM | TGI (SK-MEL-28 melanoma): > 100 µM | TGI (OVCAR-3 ovarian): 42 µM | TGI (IGROV1 ovarian): > 100 µM | TGI (K-562 leukemia): > 100 µM | TGI (MALME-3M melanoma): > 100 µM | TGI (UO-31 renal): 83.3 µM | TGI (NCI-H23 lung): 79.4 µM | TGI (SN12C renal): 68.5 µM | TGI (HCT-116 colon): 39.2 µM | TGI (A549 NSCLC): > 100 µM | TGI (ACHN renal): > 100 µM | TGI (786-0 renal): 84.9 µM | TGI (TK-10 renal): > 100 µM | TGI (MDA-MB-435): > 100 µM | TGI (RXF 393 renal): 47.4 µM | TGI (KM12 colon): > 100 µM | TGI (PC-3 prostate): > 100 µM | TGI (HT29 colon): > 100 µM | TGI (SK-MEL-2 melanoma): > 100 µM | TGI (LOX IMVI melanoma): 38.6 µM | TGI (OVCAR-8 ovarian): > 100 µM | TGI (HCT-15 colon): > 100 µM | TGI (SK-OV-3 ovarian): > 100 µM | TGI (RPMI-8226 leukemia): 90.5 µM | TGI (UACC-257 melanoma): > 100 µM | TGI (U251 CNS): > 100 µM | TGI (UACC-62 melanoma): 49.1 µM | TGI (OVCAR-4 ovarian): > 100 µM | TGI (CAKI-1 renal): > 100 µM | TGI (NCI/ADR-RES ovarian): > 100 µM | TGI (A498 renal): > 100 µM | TGI (SR leukemia): > 100 µM | TGI (BT-549 breast): > 100 µM | TGI (SF-268 CNS): > 100 µM | TGI (SF-295 CNS): 76.7 µM | TGI (DU-145 prostate): > 100 µM | TGI (HS 578T breast): > 100 µM | TGI (HOP-62 NSCLC): > 100 µM | TGI (MDA-MB-231 breast): > 100 µM | TGI (EKVX NSCLC): > 100 µM | TGI (NCI-H522 lung): 29.6 µM | TGI (SNB-75 CNS): 79.6 µM | TGI (SF-539 CNS): > 100 µM | TGI (NCI-H460 lung): > 100 µM | TGI (M14 melanoma): 74.5 µM | TGI (HCC-2998 colon): > 100 µM | TGI (SW-620 colon): 61.8 µM | TGI (OVCAR-5 ovarian): 97.6 µM | TGI (MDA-N): > 100 µM | TGI (SNB-19 CNS): > 100 µM

CC(OC(C)(C)C)C(NC(=O)C(N)CCCCNC(=O)OC(C)(C)C)C(=O)NC(Cc1ccccc1)C(=O)O (stereo not drawn) (H-Lys(Boc)-Thr(tBu)-Phe-OH; configuration not given here)
TGI (MOLT-4 leukemia): > 100 µM | TGI (HOP-92 NSCLC): > 100 µM | TGI (SK-MEL-5 melanoma): > 100 µM | TGI (COLO 205 colon): > 100 µM | TGI (T-47D breast): > 100 µM | TGI (MCF7 breast): > 100 µM | TGI (SK-MEL-28 melanoma): > 100 µM | TGI (OVCAR-3 ovarian): > 100 µM | TGI (IGROV1 ovarian): > 100 µM | TGI (K-562 leukemia): > 100 µM | TGI (MALME-3M melanoma): > 100 µM | TGI (UO-31 renal): > 100 µM | TGI (NCI-H23 lung): > 100 µM | TGI (SN12C renal): > 100 µM | TGI (HCT-116 colon): > 100 µM | TGI (A549 NSCLC): > 100 µM | TGI (ACHN renal): > 100 µM | TGI (786-0 renal): > 100 µM | TGI (TK-10 renal): > 100 µM | TGI (MDA-MB-435): > 100 µM | TGI (RXF 393 renal): > 100 µM | TGI (KM12 colon): > 100 µM | TGI (PC-3 prostate): > 100 µM | TGI (HT29 colon): > 100 µM | TGI (SK-MEL-2 melanoma): > 100 µM | TGI (LOX IMVI melanoma): > 100 µM | TGI (OVCAR-8 ovarian): > 100 µM | TGI (HCT-15 colon): > 100 µM | TGI (SK-OV-3 ovarian): > 100 µM | TGI (RPMI-8226 leukemia): > 100 µM | TGI (HL-60(TB) leukemia): > 100 µM | TGI (UACC-257 melanoma): > 100 µM | TGI (U251 CNS): > 100 µM | TGI (UACC-62 melanoma): > 100 µM | TGI (NCI-H226 lung): > 100 µM | TGI (OVCAR-4 ovarian): > 100 µM | TGI (CAKI-1 renal): > 100 µM | TGI (NCI/ADR-RES ovarian): > 100 µM | TGI (SR leukemia): > 100 µM | TGI (BT-549 breast): > 100 µM | TGI (SF-268 CNS): > 100 µM | TGI (SF-295 CNS): > 100 µM | TGI (DU-145 prostate): > 100 µM | TGI (HS 578T breast): > 100 µM | TGI (HOP-62 NSCLC): > 100 µM | TGI (MDA-MB-231 breast): > 100 µM | TGI (EKVX NSCLC): > 100 µM | TGI (SNB-75 CNS): > 100 µM | TGI (SF-539 CNS): > 100 µM | TGI (NCI-H460 lung): > 100 µM | TGI (M14 melanoma): > 100 µM | TGI (HCC-2998 colon): > 100 µM | TGI (CCRF-CEM leukemia): > 100 µM | TGI (SW-620 colon): > 100 µM | TGI (OVCAR-5 ovarian): > 100 µM | TGI (MDA-N): > 100 µM | TGI (SNB-19 CNS): > 100 µM
